Reference: US8080688B2, “3, 4-disubstituted phenoxyphenylamidines and use thereof as fungicides” (Bayer Cropscience AG, priority 2007, dated 2011)
Read-outs that look alike come from different tables or passages of the source.

Assay: logP
Type: physicochemical

logP (acidic, read-out: logP acidic): 2.69
logP (neutral, read-out: logP neutr.): 6.31
logP (pH 2.3, pH 2.3, read-out: log P (pH2.3)): 2.14
SMILES: CCN(C)C=Nc1cc(C)c(Oc2ccc3c(c2)CCCC3)cc1C [Compound 13, N-Ethyl-N-methyl-N′-[4-(5,6,7,8-tetrahydro-2-naphthoxy)-2,5-dimethylphenyl]formamidine]
